In ChEMBL document CHEMBL4651402, “Screening of ~5500 FDA-approved drugs and clinical candidates for anti-SARS-CoV-2 activity” (2021):

Experiments:
[1] = in vitro; conditions: chlorocebus sabaeus
[2] = test system: SARS-CoV-2; experiment: microbe, parasite or virus in culture; format: functional, organism-based, Chlorocebus sabaeus, Vero C1008; conditions: Severe acute respiratory syndrome coronavirus 2, Vero C1008, 48 h
[3] = test system: SARS-CoV-2; experiment: microbe, parasite or virus in culture; conditions: Severe acute respiratory syndrome coronavirus 2, Vero C1008, 48 h
[4] = Vero E6 (Vero C1008) cells, CC50
[5] = Vero E6 (Vero C1008) cells, pCC50

| Structure (SMILES) | CC50 at 48 h [1, 4] [µM] | CC50 at 48 h [1, 5] [µM] | IC50 ([2]; read-out: IC50) [µM] | IC50 ([2]; read-out: pIC50 (converted)) [µM] | IC50 [3] [µM] | IC50 ([3]; read-out: pIC50 (converted)) [µM] | CC50 at 48 h ([1]; vero c1008, CC50) [µM] | CC50 at 48 h ([1]; vero c1008, pCC50) [µM] |
| --- | --- | --- | --- | --- | --- | --- | --- | --- |
| C[C@H]1c2ccccc2[C@@H](CCCN(C)C)c2cc(C(F)(F)F)ccc21 | 12 | 12 | 10.5 | 10.5 | > 100 | > 100 |  |  |
| CCN(CCO)CCC[C@@H](C)Nc1ccnc2cc(Cl)ccc12 | > 50.1 | > 50.1 | > 50.1 | > 50.1 | 12.7 | 12.6 |  |  |
| CC[C@H](C(=O)[C@H](C)[C@@H](O)[C@H](C)CCc1ccc(C)c(O)c1C(=O)O)[C@@H]1O[C@@](CC)([C@H]2CC[C@](O)(CC)[C@@H](C)O2)C[C@@H]1C | ~5.37 | ~5.37 | 1.07 | 1.07 | > 0.631 | > 0.631 |  |  |
| Cc1c(O)cccc1C(=O)N[C@@H](CSc1ccccc1)[C@H](O)CN1C[C@H]2CCCC[C@H]2C[C@H]1C(=O)NC(C)(C)C | 11.2 | 11.2 | ~3.97 | ~3.98 | 5.22 | 5.25 |  |  |
| CO[C@H]1CC[C@H](n2c([C@H]3CCCC(=O)N3c3ccc(F)c(F)c3)nc3cc(-c4c(C)noc4C)ccc32)CC1 (relative stereo) | 9.12 | 9.12 | > 100 | > 100 | > 100 | > 100 |  |  |
| Nc1nc2nn[nH]c2c(=O)[nH]1 [8-AZAGUANINE] | 23.7 | 23.4 | > 50.1 | > 50.1 | > 50.1 | > 50.1 |  |  |
| CNCC[C@@H](Oc1cccc2ccccc12)c1cccs1 [(R)-DULOXETINE] |  |  | > 100 | > 100 | 7.24 | 7.24 | 16.2 | 16.2 |
| CN[C@@H]1C[C@@H](c2ccc(Cl)c(Cl)c2)c2ccccc21 [(R,S)-INDATRALINE] | 8.51 | 8.51 | > 100 | > 100 | 8.32 | 8.32 |  |  |
| CC(=O)O[C@H]1CC[C@@]2(C)C(=CC[C@@H]3[C@@H]2CC[C@]2(C)C(c4cccnc4)=CC[C@@H]32)C1 [ABIRATERONE ACETATE] | 9.89 | 9.77 | > 25.1 | > 25.1 | > 100 | > 100 |  |  |
| CC(=O)c1ccc2c(c1)N(CCCN(C)C)c1ccccc1S2 [ACEPROMAZINE] | 22.4 | 22.4 | > 100 | > 100 | > 100 | > 100 |  |  |
| CC(=O)c1ccc2c(c1)N(CCCN1CCN(CCO)CC1)c1ccccc1S2 [ACETOPHENAZINE] | ~14.6 | ~14.5 | > 100 | > 100 | > 100 | > 100 |  |  |
| Cc1cc(O[C@@H](CCC(F)(F)F)c2ccc(C(=O)NCCC(=O)O)cc2)cc(C)c1-c1ccc(C(C)(C)C)cc1 [ADOMEGLIVANT] | ~10.4 | ~10.2 | > 6.31 | > 6.31 | > 10 | > 10 |  |  |
| CNC(=O)[C@@H](c1ccccc1)N1CCc2cc(OC)c(OC)cc2[C@@H]1CCc1ccc(C(F)(F)F)cc1 [ALMOREXANT] | 21.4 | 21.4 | > 25.1 | > 25.1 | 18.6 | 18.6 |  |  |
| CCOC(=O)[C@H]1O[C@@H]1C(=O)N[C@@H](CC(C)C)C(=O)NCCC(C)C [ALOXISTATIN] | > 100 | > 100 | 85.1 | 85.1 | 34.3 | 33.9 |  |  |
| C=C1CC[C@@H]2[C@](C)(CO)[C@H](O)CC[C@@]2(C)[C@@H]1C/C=C1/C(=O)OC[C@H]1O [ANDROGRAPHOLIDE] | ~21.6 | ~21.4 | > 100 | > 100 | > 100 | > 100 |  |  |
| O=C1c2c(O)cccc2Cc2cccc(O)c21 [ANTHRALIN] | > 100 | > 100 | > 100 | > 100 | > 100 | > 100 |  |  |
| CN1CCCC(n2nc(Cc3ccc(Cl)cc3)c3ccccc3c2=O)CC1 (stereo not given) [AZELASTINE] | 17.8 | 17.8 | > 100 | > 100 | 13.3 | 13.2 |  |  |
| Nc1nc(Nc2ccc3c(c2)CC[C@@H](N2CCCC2)CC3)nn1-c1cc2c(nn1)-c1ccccc1CCC2 [BEMCENTINIB] | 1.55 | 1.55 | > 50.1 | > 50.1 | 1.78 | 1.78 |  |  |
| CNCc1ccc(-c2cc(-c3nc(-c4ccc(S(=O)(=O)C(C)C)cc4)cnc3N)on2)cc1 [BERZOSERTIB] | 10.2 | 10.2 | ~7.16 | ~7.08 | > 5.01 | > 5.01 |  |  |
| CNCCCCOc1ccccc1Cc1ccccc1 [BIFEMELANE] |  |  | 20.9 | 20.9 | > 100 | > 100 | 26.9 | 26.9 |
